Assay results: patent publication US8889671B2, “Compounds and methods for treating bacterial infections” (AstraZeneca AB, priority 2013, dated 2014)
In brackets after ≈: the same amount, converted by molar mass.

How the values were obtained:
[1] = tested on: Streptococcus pyogenes ATCC12384; assay: Modal MIC against S. pyogenes ATCC12384; assay type: cell-based
Description: The MIC against S. pyogenes ATCC12384 was determined using the broth microdilution method following CLSI guidelines. Three individual determinations were performed for each strain and the Modal MIC was used for all PK/PD calculations. All animal experiments were performed under UK Home Office Licensure with local ethical committee clearance. All experiments were performed by technicians who have completed parts 1, 2 and 3 of the Home Office Personal License course and hold current personal licenses.

[2] = Plasma pharmacokinetics in S. pyogenes infected mice; assay type: in vivo; details: mouse, ip, with ABT
Description: Groups of satellite mice infected with S. pyogenes, as described above, were used for determining plasma concentrations. Dosing started 2 hours after infection and whole blood samples were taken at 0.5, 1, 2, 4, 6, 8, 12 and 24 h. Mice from the satellite PK study were euthanized by inhaled 5% isofluorane at specified time points post-treatment, mice were bled immediately by cardiac puncture. Heparinised blood samples were separated by centrifugation for five minutes at 13200 rpm. Plasma samples were stored at minus 80° C. before transfer to the client for analysis.
For the PK arm of the study, 3 mice per time point per unit dose were used. Due to unintended changes in the final work order, the 80 and 160 mg/kg dosing groups initially were administered Example 5 without prior treatment with aminobenzotriazole. Once this was realised, the remaining mice were re-distributed across the dosing groups and group size was reduced to two mice per time point.
Biological samples containing Example 5 were extracted using protein precipitation. To one volume of sample, 5 volumes of acetonitrile containing the internal standard (Glyburide) were added. The mixture was then mixed and the plate was centrifuged at 3200 rpm for 5 min. A 200 μL volume of the supernatant was dried down and, reconstituted in mobile phase and the mixture was injected onto liquid chromatography-mass spectrometry (LC-MS). A Sciex API 4000, controlled by Analyst v1.4.2, was used for the acquisition of the data and the quantification of Example 5.
The plasma profile for each dose group was obtained by calculating the average plasma concentration of compound in each of the two to three animals per time point. The area under the plasma concentration time curve from zero to infinity (AUC); maximum plasma drug concentration (Cmax); time to reach maximum concentration (tmax); and plasma half-life (t1/2) for each dose group was determined by non-compartmental analysis (WinNonLin 5.2, Pharsight). The non-compartmental Model 200 was used in the analysis.

Moraxella catarrhalis = assay: In vitro antibacterial activity of Example 5 (MIC); assay type: cell-based; details: ATCC43617; Moraxella catarrhalis (ATCC 43617)
Neisseria gonorrhoeae = assay: In vitro antibacterial activity of Example 5 (MIC, agar dilution); assay type: cell-based; details: 17 strains of Neisseria gonorrhoeae

C[C@@H]1CN2c3c(cc4c(N5C(=O)OC[C@@H]5C)noc4c3F)CC3(C(=O)NC(=O)NC3=O)[C@H]2[C@H](C)O1 [Example 5, (2R,4S,4aS)-11-Fluoro-2,4-dimethyl-8-[(4S)-4-methyl-2-oxo-1,3-oxazolidin-3-yl]-1,2,4,4a-tetrahydro-2′H,6H-spiro[1,4-oxazino[4,3-a][1,2]oxazolo[4,5-g]quinoline-5,5′-pyrimidine]-2′,4′,6′(1′H,3′H)-trione]
MIC [1]: 0.125 mg/L (≈ 0.256 µM)
AUC(0-inf) ([2]; nominal dose 10 mg/kg (measured 4.1)): 32.6 µg·h/mL
AUC(0-inf) ([2]; nominal dose 40 mg/kg (measured 25.4)): 109 µg·h/mL
AUC(0-inf) ([2]; nominal dose 60 mg/kg (measured 44.2)): 153 µg·h/mL
AUC(0-inf) ([2]; nominal dose 80 mg/kg (measured 66.2)): 251 µg·h/mL
AUC(0-inf) ([2]; nominal dose 160 mg/kg (measured 142.0)): 614 µg·h/mL
MIC (Moraxella catarrhalis): 0.125 mg/L (≈ 0.256 µM)
MIC90 (Neisseria gonorrhoeae): 0.125 mg/L (≈ 0.256 µM)
MIC range (Neisseria gonorrhoeae): 0.03 to 0.25 mg/L
